Source: patent publication US7816408B2, “Calcium receptor active compounds” (NPS Pharmaceuticals, Inc., priority 2002, dated 2010)

Assays:
human calcium receptor = molecular target: T1, human calcium receptor (Homo sapiens, UniProt P41180); assay: Activity on calcium receptors: fluo-3 fluorescence in HEK293 cells transfected with human calcium receptor gene; assay type: cell-based; conditions: HEK293 cells transfected with plasmid pHuPCaR4.0 (human calcium receptor gene), loaded with fluo-3; 1 mM CaCl2, 1 mM MgCl2
T1 construct: expressed in transfected cells; host or cells: HEK293
T1 sequence (P41180 20-1078): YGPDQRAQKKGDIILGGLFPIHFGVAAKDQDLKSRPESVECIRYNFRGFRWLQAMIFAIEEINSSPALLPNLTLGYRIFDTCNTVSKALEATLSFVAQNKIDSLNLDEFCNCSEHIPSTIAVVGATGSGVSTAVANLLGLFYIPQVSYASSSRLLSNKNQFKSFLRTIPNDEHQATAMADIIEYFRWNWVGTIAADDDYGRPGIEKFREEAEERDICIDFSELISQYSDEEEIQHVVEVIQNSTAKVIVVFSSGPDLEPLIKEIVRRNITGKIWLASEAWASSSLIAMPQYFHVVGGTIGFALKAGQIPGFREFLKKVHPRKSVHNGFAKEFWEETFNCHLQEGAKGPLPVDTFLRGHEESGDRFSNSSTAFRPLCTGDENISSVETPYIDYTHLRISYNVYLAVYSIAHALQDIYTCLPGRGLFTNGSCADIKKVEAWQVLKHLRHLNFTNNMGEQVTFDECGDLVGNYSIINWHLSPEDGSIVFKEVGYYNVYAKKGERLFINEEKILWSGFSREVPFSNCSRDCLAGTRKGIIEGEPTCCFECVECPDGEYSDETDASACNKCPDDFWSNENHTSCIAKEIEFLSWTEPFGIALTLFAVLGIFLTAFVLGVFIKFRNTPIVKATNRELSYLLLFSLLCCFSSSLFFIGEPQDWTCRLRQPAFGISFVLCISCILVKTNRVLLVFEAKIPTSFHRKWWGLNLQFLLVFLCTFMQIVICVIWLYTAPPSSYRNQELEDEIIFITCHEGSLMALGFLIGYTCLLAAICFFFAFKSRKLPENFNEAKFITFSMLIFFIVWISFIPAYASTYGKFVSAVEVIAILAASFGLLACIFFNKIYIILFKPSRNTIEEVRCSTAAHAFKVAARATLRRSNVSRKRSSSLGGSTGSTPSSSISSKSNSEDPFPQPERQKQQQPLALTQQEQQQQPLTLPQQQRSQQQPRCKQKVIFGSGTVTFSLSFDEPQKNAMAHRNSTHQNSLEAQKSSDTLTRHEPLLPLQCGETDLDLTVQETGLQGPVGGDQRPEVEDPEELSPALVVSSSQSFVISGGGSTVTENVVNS
Procedure: The activities of the compounds of the present invention on calcium receptors were measured. The measurement was performed in accordance with the method described in Example 4 of Nemeth et al., PCT/US95/13704 (International Publication No. WO96/12697). In brief, HEK293 cells were transfected with a plasmid pHuPCaR4.0 containing a human calcium receptor gene and loaded with fluo-3. The loading was carried out by incubating the cells at 37° C. for 1 hour in Dulbecco's modified Eagle's medium which contained about 5 μM of fluo-3/AM and had been buffered with 20 mM HEPES. Next, the cells were rinsed with Hank's balanced salt solution which contained 1 mM CaCl2 and 1 mM MgCl2 and had been buffered with 20 mM HEPES. Then each test compound was added to the cells and the fluorescence was measured with the use of an excitation wavelength of 485 nm and an emission wavelength of 540 nm.

normal male SD rats = assay: Plasma Ca^2+ level of rats after single oral administration; assay type: in vivo; conditions: rat, mean of six animals; for Plasma Ca^2+ (mmol/l) 1 hr: 1 hr after single oral dose 30 μmol/kg; for Plasma Ca^2+ (mmol/l) 2 hr: 2 hr after single oral dose 30 μmol/kg; for Plasma Ca^2+ (mmol/l) 4 hr: 4 hr after single oral dose 30 μmol/kg; for Plasma Ca^2+ (mmol/l) 8 hr: 8 hr after single oral dose 30 μmol/kg; for Plasma Ca^2+ (mmol/l) 24 hr: 24 hr after single oral dose 30 μmol/kg
Procedure: The compound of the present invention was administered to rats so as to examine the effects of the compound on the plasma calcium ion level and serum PTH level. The test was performed by orally administering single dose of the compound of the invention or a control compound to normal male SD rats with six animals in each group.
To the group 1 was administered as a control a 10% cyclodextrin aqueous solution in a dose of 2.5 ml/kg. To the group 2 was administered as a reference (R)-N-(3-(2-chlorophenyl)propyl)-1-(3-methoxyphenyl)ethylamine (KRN568) dissolved in a 10% cyclodextrin aqueous solution in a dose of 30 μmol/kg. To the group 3 was administered the compound of the present invention dissolved in a 10% cyclodextrin aqueous solution in a dose of 30 μmol/kg, provided that 1% sodium-CMC aqueous solution was used in place of 10% cyclodextrin aqueous solution for the compounds marked with ** in Table 2.
Blood of each rat was collected from the tail tip before the administration and 30 minutes and 1, 2, 4, 8 and 24 hours thereafter (or at the time indicated in Table 2), and the plasma Ca^2+ level and serum PTH level were measured. The data of the serum PTH level were statistically processed by the multiple comparison analysis in accordance with Steel's calibration by using the group 1 as the control.

[1] = vehicle 10% cyclodextrin (** 1% sodium-CMC)

Structure (SMILES) | EC50 (human calcium receptor) [µM] | Plasma Ca^2+ (mmol/l) 1 hr (normal male SD rats; [1]) [mmol/L] | Plasma Ca^2+ (mmol/l) 2 hr (normal male SD rats; [1]) [mmol/L] | Plasma Ca^2+ (mmol/l) 4 hr (normal male SD rats; [1]) [mmol/L] | Plasma Ca^2+ (mmol/l) 8 hr (normal male SD rats; [1]) [mmol/L] | Plasma Ca^2+ (mmol/l) 24 hr (normal male SD rats; [1]) [mmol/L] | Plasma Ca^2+ (mmol/l) 31 hr (footnote *a, 48 hr column) (normal male SD rats; 31 hr after single oral dose 30 μmol/kg, 1% sodium-CMC) | Plasma Ca^2+ (mmol/l) 0 hr (normal male SD rats; 0 hr = before oral administration of 30 μmol/kg, vehicle 10% cyclodextrin (** 1% sodium-CMC)) [mmol/L]
C[C@@H](NCCCCCSc1ccc(Cl)cc1)c1cccc2ccccc12 [Compound K-2027, N-{5-[(4-chlorophenyl)thio]pentyl}-N-[(1R)-1-(1-naphthyl)ethyl]amine] | 0.39 | 1.197 | 1.102 | 0.995 | 1.048 | 1.363 |  | 
C[C@@H](NCCCCCSc1ccc(F)cc1)c1cccc2ccccc12 [Compound K-2052, N-{5-[(4-fluorophenyl)thio]pentyl}-N-[(1R)-1-(1-naphthyl)ethyl]amine] | 5.7 | 1.283 | 1.187 | 1.087 | 1.185 |  |  | 
C[C@@H](NCCCCSc1cccc(C(F)(F)F)c1)c1cccc2ccccc12 [Compound K-2087, N-[(1R)-1-(1-naphthyl)ethyl]-N-(4-{[3-(trifluoromethyl)phenyl]thio}butyl)amine] | 0.087 | 1.325 | 1.243 | 1.197 | 1.255 |  |  | 
C[C@@H](NCCCSc1ccc(C(F)(F)F)cc1)c1cccc2ccccc12 [Compound K-2240, N-[(1R)-1-(1-naphthyl)ethyl]-N-(3-{[4-(trifluoromethyl)phenyl]thio}propyl)amine] | 0.36 | 1.302 | 1.272 | 1.175 | 1.230 |  |  | 
C[C@@H](NCCC(=O)N(Cc1ccccc1)Cc1ccc(Cl)cc1)c1cccc2ccccc12 [Compound K-2247, N1-benzyl-N1-(4-chlorobenzyl)-3-{[(1R)-1-(1-naphthyl)ethyl]amino}propanamide] | 0.13 | 1.378 | 1.298 | 1.175 | 1.217 |  |  | 
C[C@@H](NCCC(=O)N(Cc1ccccc1)Cc1ccc(Cl)c(Cl)c1)c1cccc2ccccc12 [Compound K-2250, N1-benzyl-N1-(3,4-dichloro-benzyl)-3-{[(1R)-1-(1-naphthyl)ethyl]amino}propanamide] | 0.076 | 1.327 | 1.225 | 1.122 | 1.203 |  |  | 
C[C@@H](NCCC(=O)N(Cc1ccc(Cl)cc1)Cc1ccccc1Cl)c1cccc2ccccc12 [Compound K-2262, N1-(2-chlorobenzyl)-N1-(4-chlorobenzyl)-3-{[(1R)-1-(1-naphthyl)ethyl]amino}propanamide] | 0.084 | 1.390 | 1.260 | 1.138 | 1.142 |  |  | 

Now from value to compound, other results behind:

EC50 (human calcium receptor) [µM] | Structure (SMILES) | Plasma Ca^2+ (mmol/l) 1 hr (normal male SD rats; [1]) [mmol/L] | Plasma Ca^2+ (mmol/l) 2 hr (normal male SD rats; [1]) [mmol/L] | Plasma Ca^2+ (mmol/l) 4 hr (normal male SD rats; [1]) [mmol/L] | Plasma Ca^2+ (mmol/l) 8 hr (normal male SD rats; [1]) [mmol/L] | Plasma Ca^2+ (mmol/l) 24 hr (normal male SD rats; [1]) [mmol/L] | Plasma Ca^2+ (mmol/l) 31 hr (footnote *a, 48 hr column) (normal male SD rats; 31 hr after single oral dose 30 μmol/kg, 1% sodium-CMC) | Plasma Ca^2+ (mmol/l) 0 hr (normal male SD rats; 0 hr = before oral administration of 30 μmol/kg, vehicle 10% cyclodextrin (** 1% sodium-CMC)) [mmol/L]
0.11 | C[C@@H](NCCCCSc1ccc(F)cc1)c1cccc2ccccc12 [Compound K-2263, N-{4-[(4-fluorophenyl)thio]butyl}-N-[(1R)-1-(1-naphthyl)ethyl]amine] | 1.273 | 1.237 | 1.212 | 1.308 |  |  | 
0.016 | C[C@@H](NCCC(=O)N(Cc1ccc(C(F)(F)F)cc1)Cc1ccc(Cl)c(Cl)c1)c1cccc2ccccc12 [Compound K-2264, N1-(3,4-dichlorobenzyl)-N1-[(4-trifluoromethyl)benzyl]-3-{[(1R)-1-(1-naphthyl)ethyl]-amino}propanamide] | 1.335 | 1.203 | 1.013 | 0.998 | 1.182 | 1.240*^a mmol/l | 
0.061 | C[C@@H](NCCC(=O)N(Cc1ccc(Cl)c(Cl)c1)Cc1ccc(Cl)c(Cl)c1)c1cccc2ccccc12 [Compound K-2265, N1,N1-di(3,4-dichlorobenzyl)-3-{[(1R)-1-(1-naphthyl)ethyl]amino}propanamide] | 1.430 | 1.363 | 1.260 | 1.218 |  |  | 
0.036 | C[C@@H](NCCC(=O)N(Cc1ccc(Cl)cc1)Cc1ccc(C(F)(F)F)cc1)c1cccc2ccccc12 [Compound K-2266, N1-(4-chlorobenzyl)-N1-[(4-trifluoromethyl)benzyl]-3-{[(1R)-1-(1-naphthyl)ethyl]amino}propanamide] | 1.368 | 1.222 | 1.065 | 1.045 | 1.370 |  | 1.417
0.014 | C[C@@H](NCCC(=O)N(Cc1ccc(Cl)cc1)Cc1ccc(Cl)c(Cl)c1)c1cccc2ccccc12 [Compound K-2267, N1-(4-chlorobenzyl)-N1-(3,4-dichlorobenzyl)-3-{[(1R)-1-(1-naphthyl)ethyl]amino}propanamide] | 1.347 | 1.212 | 1.027 | 1.022 | 1.312 |  | 
0.071 | COc1cccc(SCCCCN[C@H](C)c2cccc3ccccc23)c1 [Compound K-2269, N-{4-[(3-methoxyphenyl)thio]butyl}-N-[(1R)-1-(1-naphthyl)ethyl]amine] | 1.152 | 1.140 | 1.097 | 1.173 |  |  | 
0.14 | COc1ccc(CN(Cc2ccc(OC)cc2)C(=O)CCN[C@H](C)c2cccc3ccccc23)cc1 [Compound K-2270, N1,N1-di(4-methoxybenzyl)-3-{[(1R)-1-(1-naphthyl)ethyl]amino}propanamide] | 1.355 | 1.238 | 1.088 | 1.175 |  |  | 
